IC50 and inhibition data for 16 compounds are collected here from patent US5225528A, “Cyclic hexapeptide oxytocin antagonists” (priority 1990, dated 1993).

Where two headings read alike, the source gives them in different places. Numbered stars: 1 amine (or outer) side, 2 acyl side, 3 side chain; on linkers, the order of the positions; unused ones are H or OH. Square brackets hold non-standard residues; d marks the D form. Peptide text beside a SMILES is read from it. * marks the point of attachment. X2 = O=C(OCc1ccccc1)N1CCN([*:1])[C@H](C(=O)[*:2])C1; dPiz(1,6-dehydro) = O=C(O)[C@H]1CCC=NN1; dNMeY = CN[C@H](Cc1ccc(O)cc1)C(=O)O; NMeI = CC[C@H](C)[C@H](NC)C(=O)O; Pip(4-aza) = O=C(O)[C@@H]1CNCCN1; dNMeF = CN[C@H](Cc1ccccc1)C(=O)O; dPip(4-aza) = O=C(O)[C@H]1CNCCN1; dOrn = NCCC[C@@H](N)C(=O)O; Pip = O=C(O)[C@@H]1CCCCN1; dPip = O=C(O)[C@H]1CCCCN1; dNMeA = CN[C@H](C)C(=O)O; Cbz = O=C(OCc1ccccc1)*; Dha = C=C(N)C(=O)O; OtBu = CC(C)(C)O* Where only a bound is given, the exact number is not on record here.

In one experiment the target is T1, AVP-V1 sites (Rattus norvegicus, UniProt P30560).
T1 construct: crude membrane preparation of male rat liver (AVP-V1 sites); from tissue; host or cells: male rat liver, crude membranes
T1 sequence (P30560 whole entry): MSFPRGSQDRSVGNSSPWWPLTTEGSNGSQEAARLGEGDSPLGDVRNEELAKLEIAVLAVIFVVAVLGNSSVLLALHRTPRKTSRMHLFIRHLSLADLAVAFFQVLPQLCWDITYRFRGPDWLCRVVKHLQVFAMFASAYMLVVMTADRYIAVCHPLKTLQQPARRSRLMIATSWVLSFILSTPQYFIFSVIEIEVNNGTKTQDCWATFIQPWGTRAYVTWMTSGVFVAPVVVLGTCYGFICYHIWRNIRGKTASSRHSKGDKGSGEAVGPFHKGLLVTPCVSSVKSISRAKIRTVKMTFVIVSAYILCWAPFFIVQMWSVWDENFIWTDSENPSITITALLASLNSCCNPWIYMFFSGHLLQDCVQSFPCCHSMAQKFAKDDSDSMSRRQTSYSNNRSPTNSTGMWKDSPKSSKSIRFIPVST
In words: [^3 H]AVP binding to crude membrane preparation of male rat liver (AVP-V1 sites). The protocol: (§1) Nonspecific binding (5-10% of the total binding) was determined using 10 μM unlabeled AVP, and the binding reaction was terminated by filtration as described above for the [^3 H]OT binding assay.

The target in another experiment is T2, AVP-V2 sites (Rattus norvegicus, UniProt Q00788).
T2 construct: male rat liver (AVP-V1 sites) or kidney medulla (AVP-V2 sites); from tissue; host or cells: male rat kidney medulla, crude membranes
T2 sequence (Q00788 whole entry): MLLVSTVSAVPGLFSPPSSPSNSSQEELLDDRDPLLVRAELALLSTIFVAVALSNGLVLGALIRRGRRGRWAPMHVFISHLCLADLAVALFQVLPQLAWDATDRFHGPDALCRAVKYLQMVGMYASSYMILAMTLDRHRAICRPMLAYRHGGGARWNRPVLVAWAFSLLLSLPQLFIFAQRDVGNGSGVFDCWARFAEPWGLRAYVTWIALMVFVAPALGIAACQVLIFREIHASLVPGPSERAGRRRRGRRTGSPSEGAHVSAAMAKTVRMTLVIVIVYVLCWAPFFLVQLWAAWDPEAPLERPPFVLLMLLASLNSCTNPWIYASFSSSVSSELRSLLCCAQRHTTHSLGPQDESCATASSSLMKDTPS
The experiment in a line: [^3 H]AVP binding to crude membrane preparation of male rat kidney medulla (AVP-V2 sites). The protocol: as §1

The next experiment concerns the target T3, uterine OT receptors (Rattus norvegicus, UniProt P70536).
T3 construct: from tissue; host or cells: uterus of DES-treated rats, crude membranes
T3 sequence (P70536 1-388): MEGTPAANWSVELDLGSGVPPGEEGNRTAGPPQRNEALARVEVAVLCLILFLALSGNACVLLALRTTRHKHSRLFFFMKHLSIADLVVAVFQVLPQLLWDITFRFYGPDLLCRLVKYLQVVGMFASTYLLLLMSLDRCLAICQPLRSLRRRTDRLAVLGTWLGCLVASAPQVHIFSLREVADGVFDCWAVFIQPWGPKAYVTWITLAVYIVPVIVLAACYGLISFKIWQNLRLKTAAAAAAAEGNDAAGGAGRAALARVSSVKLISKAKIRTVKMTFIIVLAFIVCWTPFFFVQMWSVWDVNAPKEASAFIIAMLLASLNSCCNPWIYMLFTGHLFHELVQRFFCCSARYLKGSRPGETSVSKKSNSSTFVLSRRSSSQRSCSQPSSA
The experiment in a line: [^3 H]OT binding to uterine OT receptors, crude membrane preparation of uteri from DES-treated rats. The settings on record: for IC50: rat uterus membranes, 1 nM [^3 H]OT, read-out: Receptor Binding Results IC50 (nM) [^3 H]OT; for inhibition at 0.1 µM / inhibition at 1 µM: 1 h, read-out: [^3 H]OT: percent inhibition of radioligand at the given concentration; for inhibition at 0.1 µM: @ 100 (nM); for inhibition at 1 µM: @ 1,000 (nM). On the procedure: Competition studies were conducted at equilibrium (60 minutes; 22° C.) using 1 nM [^3 H]OT in the following assay buffer: 50 mM Tris-HCl, 5 mM MgCl2, and 0.1% BSA, pH 7.4.

[1] abbreviates: Receptor Binding Results IC50 (nM) [^3 H]-AVP-V1.
Setting [2] is: rat kidney medulla membranes, 2 nM [^3 H]AVP, read-out: Receptor Binding Results IC50 (nM) [^3 H]-AVP-V2.
The mark [3] stands for this setting: Receptor Binding Results IC50 (nM) [^3 H]-AVP-V2.
Setting [4] is: read-out: Receptor Binding Results IC50 (nM) [^3 H]-AVP-V2.
The mark [5] stands for this setting: read-out: Receptor Binding Results IC50 (nM) [^3 H]-AVP-V1.

With `C=C1NC(=O)[C@H]2CCCN2C(=O)[C@H]([C@@H](C)CC)NC(=O)[C@@H](Cc2ccccc2)NC(=O)[C@@H]2CCCN2C(=O)[C@@H](Cc2ccccc2)N(C)C1=O` [Example 117, c-[D-Phenylalanyl-L-isoleucyl-D-prolyl-dehydroalanyl-N-methyl-D-phenylalanyl-L-prolyl]] (cyclo([Dha][dNMeF]P[dF]I[dP])), the IC50 on AVP-V1 sites (setting [1]), at AVP-V2 sites (setting [2]) and at uterine OT receptors was more than 10000 nM throughout.
Take `CC[C@H](C)[C@@H]1NC(=O)[C@@H](Cc2ccccc2)NC(=O)[C@@H]2CCCN2C(=O)[C@@H](CCCN)NC(=O)[C@@H]2CCCCN2C(=O)[C@H]2CCCCN2C1=O` [Example 39, Cyclo[D-phenylalanyl-L-isoleucyl-D-pipecolyl-L-pipecolyl-D-ornithyl-L-prolyl]] (cyclo(I[dPip][Pip][dOrn]P[dF])): the figures for the IC50 at AVP-V1 sites (setting [1]) and at AVP-V2 sites (setting [3]) were more than 1000 nM and more than 10000 nM, respectively. Moreover, on uterine OT receptors, the inhibition at 0.1 µM was determined as 28%.
Take `CC[C@H](C)[C@@H]1NC(=O)[C@@H](C)N(C)C(=O)[C@@H]2CCCN2C(=O)[C@@H](Cc2ccccc2)N(C)C(=O)[C@@H]2CCCCN2C(=O)[C@H]2CCCCN2C1=O` [Example 167, c-[N-Me-D-Alanyl-L-isoleucyl-D-pipecolyl-L-pipecolyl-N-Me-D-phenylalanyl-L-prolyl]] (cyclo(I[dPip][Pip][dNMeF]P[dNMeA])): the IC50 at AVP-V1 sites (setting [1]) and on AVP-V2 sites (setting [2]) was more than 10000 nM in each case. The inhibition at 1 µM on uterine OT receptors is 5%.
On to `CCOc1ccc(C[C@H]2NC(=O)[C@@H]3CCCN3C(=O)[C@@H](Cc3ccccc3)N(C)C(=O)[C@@H]3CCCCN3C(=O)[C@H]3CCCCN3C(=O)[C@H]([C@@H](C)CC)NC2=O)cc1` [Example 122, c-[(O-Ethyl)-D-tyrosyl-L-isoleucyl-D-pipecolyl-L-pipecolyl-N-methyl-D-phenylalanyl-L-prolyl]] (cyclo(I[dPip][Pip][dNMeF]P[dY](Et))), for which the IC50 was more than 10000 nM at AVP-V1 sites (setting [1]), 695 nM at AVP-V2 sites (setting [4]) and 130 nM on uterine OT receptors.
In the case of `CC[C@H](C)[C@@H]1NC(=O)[C@@H](Cc2c[nH]c3ccccc23)NC(=O)[C@@H]2CCCN2C(=O)[C@@H](Cc2ccccc2)NC(=O)[C@@H]2CN(C(=O)OCc3ccccc3)CCN2C(=O)[C@H]2CCCCN2C1=O` [Example 89, c-[D-Tryptophanyl-L-isoleucinyl-D-pipecolyl-L-piperazin-2-yl(4-Cbz)-D-phenylalanyl-L-prolyl]] (cyclo(I[dPip][X2][dF]P[dW])), the IC50 on AVP-V1 sites (setting [1]) is more than 10000 nM; at AVP-V2 sites (setting [3]), more than 1000 nM. In addition, at uterine OT receptors, the inhibition at 0.1 µM was determined as 35%.
For the compound `CC[C@H](C)[C@@H]1NC(=O)[C@@H](Cc2c[nH]c3ccccc23)NC(=O)[C@@H]2CCCN2C(=O)[C@@H](Cc2c[nH]c3ccccc23)NC(=O)[C@H](CCCCNC(=O)OCc2ccccc2)NC(=O)[C@H]2CCCCN2C1=O` [Example 29, Cyclo[D-tryptophanyl-L-isoleucyl-D-pipecolyl-L-(carbobenzloxy)lysyl-D-tryptophanyl-L-prolyl]] (cyclo(I[dPip]K(Cbz)[dW]P[dW])), the IC50 at AVP-V1 sites (setting [1]) and at AVP-V2 sites (setting [2]) was more than 10000 nM each time. For the same compound, the inhibition at 0.1 µM at uterine OT receptors is 32%.
Turning to `CC[C@H](C)[C@@H]1NC(=O)[C@@H](Cc2ccccc2)NC(=O)[C@@H]2CCCN2C(=O)[C@@H](Cc2ccc(O)cc2)N(C)C(=O)[C@@H]2CCCCN2C(=O)[C@H]2CCCCN2C1=O` [Example 46, Cyclo[D-phenylalanyl-L-isoleucyl-D-pipecolyl-L-pipecolyl-D-(N^α Methyl)tyrosyl-L-prolyl]] (cyclo(I[dPip][Pip][dNMeY]P[dF])), the IC50 at AVP-V1 sites (setting [1]) was 10000 nM; at AVP-V2 sites (setting [3]), more than 1000 nM. For the same compound, the inhibition at 0.1 µM on uterine OT receptors is 60%.
Regarding `CC[C@H](C)[C@@H]1NC(=O)[C@@H](Cc2c[nH]c3ccccc23)NC(=O)[C@@H]2CCCN2C(=O)[C@@H](Cc2ccccc2)N(C)C(=O)[C@@H]2CNCCN2C(=O)[C@H]2CCC=NN2C1=O` [Example 170, c-[D-Tryptophanyl-L-isoleucinyl-D-Δ-piperazyl-L-piperazin-2-yl-N^α -Me-D-phenylalanyl-L-prolyl]] (cyclo(I[dPiz(1,6-dehydro)][Pip(4-aza)][dNMeF]P[dW])), the IC50 on AVP-V1 sites (setting [5]) amounted to 6850 nM; at AVP-V2 sites (setting [4]), 175 nM; at uterine OT receptors, 3.1 nM.
In the case of `CC[C@H](C)[C@@H]1NC(=O)[C@@H](Cc2ccccc2)NC(=O)[C@@H]2CCCN2C(=O)[C@@H](Cc2ccccc2)NC(=O)[C@@H]2CCCCN2C(=O)[C@H]2CNCCN2C1=O` [Example 84, c-[D-Phenylalanyl-L-isoleucinyl-D-piperazin-2-yl-L-pipecolyl-D-phenyalanyl-L-prolyl]] (cyclo(I[dPip(4-aza)][Pip][dF]P[dF])), the IC50 at AVP-V1 sites (setting [1]) is 10000 nM; at AVP-V2 sites (setting [2]), more than 10000 nM; at uterine OT receptors, more than 1000 nM.
For `CC[C@H](C)[C@@H]1NC(=O)[C@@H](Cc2ccccc2)NC(=O)[C@@H]2CCCN2C(=O)[C@@H](Cc2ccccc2)NC(=O)[C@@H]2CNCCN2C(=O)[C@H]2CNCCN2C1=O` [Example 80, c-[D-Phenylalanyl-L-isoleucinyl-D-piperazin-2-yl-L-piperazin-2-yl-D-phenylalanyl-L-prolyl]] (cyclo(I[dPip(4-aza)][Pip(4-aza)][dF]P[dF])), in that order: more than 10000 nM, more than 10000 nM and 10000 nM.
In the case of `CN1C(=O)[C@@H]2CCCCN2C(=O)[C@H]2CCCCN2C(=O)[C@H](Cc2ccccc2)NC(=O)[C@@H](Cc2ccccc2)NC(=O)[C@@H]2CCCN2C(=O)[C@H]1Cc1ccccc1` [Example 136, c-[D-Phenylalanyl-L-phenylalanyl-D-pipecolyl-L-pipecolyl-D-(N-methyl)phenylalanyl-L-prolyl]] (cyclo(F[dPip][Pip][dNMeF]P[dF])), the figures for the IC50 at AVP-V1 sites (setting [1]), at AVP-V2 sites (setting [4]) and at uterine OT receptors were more than 10000 nM, 8000 nM and 410 nM, respectively.
As for `CC[C@H](C)[C@H]1C(=O)N2CCCC[C@@H]2C(=O)N2CCCC[C@H]2C(=O)N(C)[C@H](Cc2ccccc2)C(=O)N2CCC[C@H]2C(=O)N(C)[C@H](C)C(=O)N1C` [Example 16, C-[D-(N^α methyl)alanyl-L-(N^α methyl)isoleucyl-D-pipecolyl-L-pipecolyl-D-(N^α methyl)phenylalanyl-L-prolyl]] (cyclo([NMeI][dPip][Pip][dNMeF]P[dNMeA])), the IC50 is more than 10000 nM at AVP-V1 sites (setting [1]), more than 10000 nM on AVP-V2 sites (setting [2]) and 650 nM at uterine OT receptors.
With `CC[C@H](C)[C@H]1C(=O)N2CCCC[C@@H]2C(=O)N2CCCC[C@H]2C(=O)N(C)[C@H](Cc2ccccc2)C(=O)N2CCC[C@H]2C(=O)N(C)[C@H](Cc2ccccc2)C(=O)N1C` [Example 15, C-[D-(N^α methyl)phenylalanyl-L-(N^α methyl)isoleucyl-D-pipecolyl-L-pipecolyl-D-(N^α methyl)phenylalanyl-L-prolyl]] (cyclo([NMeI][dPip][Pip][dNMeF]P[dNMeF])), the IC50 on AVP-V1 sites (setting [1]), at AVP-V2 sites (setting [2]) and on uterine OT receptors was more than 10000 nM each time.
`CC[C@H](C)[C@@H]1NC(=O)[C@@H](Cc2ccccc2)NC(=O)[C@@H]2CCCN2C(=O)[C@@H](CC(=O)OC(C)(C)C)NC(=O)[C@@H]2CCCCN2C(=O)[C@H]2CCCCN2C1=O` [Example 179, c-[D-Phenylalanyl-L-isoleucinyl-D-pipecolyl-L-pipecolyl-D-(β-t-butyl)aspartyl-L-prolyl]] (cyclo(I[dPip][Pip][dD](OtBu)P[dF])): the IC50 on AVP-V1 sites (setting [1]) and on AVP-V2 sites (setting [2]) was more than 10000 nM throughout. The inhibition at 1 µM at uterine OT receptors worked out at 63%.
As to `CC[C@H](C)[C@@H]1NC(=O)[C@@H](Cc2c[nH]c3ccccc23)NC(=O)[C@@H]2CCCN2C(=O)[C@@H](CC(=O)OC(C)(C)C)NC(=O)[C@@H]2CCCCN2C(=O)[C@H]2CCCCN2C1=O` [Example 172, c-[D-Tryptophanyl-L-isoleucinyl-D-pipecolyl-L-pipecolyl-D-(β-t-butyl)aspartyl-L-prolyl]] (cyclo(I[dPip][Pip][dD](OtBu)P[dW])), the IC50 on AVP-V1 sites (setting [1]) and on AVP-V2 sites (setting [2]) was more than 10000 nM throughout. Further, the inhibition at 0.1 µM at uterine OT receptors was 20%.
For `CC[C@H](C)[C@@H]1NC(=O)[C@@H](Cc2c[nH]c3ccccc23)NC(=O)[C@@H]2CCCN2C(=O)[C@@H](Cc2c[nH]c3ccccc23)NC(=O)[C@@H]2CNCCN2C(=O)[C@H]2CCCCN2C1=O` [Example 88, c-[D-Trytophanyl-L-isoleucinyl-D-pipecolyl-L-piperazin-2-yl-D-tryptophanyl-L-prolyl]] (cyclo(I[dPip][Pip(4-aza)][dW]P[dW])), the results for the IC50 on AVP-V1 sites (setting [5]), on AVP-V2 sites (setting [3]) and on uterine OT receptors were 5780 nM, 1000 nM and 18 nM, respectively.
